The test system of series [1] is Serratia marcescens NIMA. Description: MIC by microdilution (EUCAST), planktonic bacteria. The series is classed as cell-based. To be noted: tested alone. How it is done: (§1) The minimum inhibitory concentrations (MICs) of colistin, TMP, 1a, and 1b were determined using the microdilution method, according to EUCAST recommendations.
A general note: Broth dilution looks for growth in wells or tubes with falling amounts of substance.

Series [2] is described as follows: Cytotoxicity assay (resazurin). The series is classed as cell-based, human. To be noted: human, HepG2 cells; 32 μg/mL, 24 h; percentage of dead cells. How it is done:
(§2) The cytotoxicity assay was carried out in the human hepatocellular carcinoma cell line Hep G2 ATCC and in murine L-929 fibroblasts (NCTC clone 929, ECACC 88102702), based on the experiments described by Vinuesa et al.. The cells were obtained from Dr. Ricardo Pérez-Tomás (Cancer Cell Biology, University of Barcelona). The cytotoxicity of TMP and compounds 1a and 1b was determined by measuring the intracellular reduction of resazurin sodium salt (Sigma-Aldrich, St. Louis, MO, USA). HepG2 and L-929 cells were grown in RPMI 1640 and MEM medium, respectively (Biochrom AG, Berlin, Germany), supplemented with 10% fetal bovine serum. Cells from pre-confluent cultures were harvested with trypsin-EDTA and maintained at 37 °C and 5% CO2. […] Twenty µL of resazurin was then added to each well and the plates were incubated under the same conditions. Fluorescence was measured at an excitation wavelength of 530 nm and an emission wavelength of 590 nm using a scanning multi-well spectrophotometer (FLUOstar OPTIMA, BMG Labtech, Germany). Cytotoxicity was calculated as follows:(1) % Cytotoxicity = 100−(AT−ADB)/(AC−AMB) ×100 where AT is the absorbance of the treated cells, ADB the absorbance of the drug blank control, AC the absorbance of the untreated cells, and ACB the absorbance of the medium blank.

Series [3] deals with HepG2 cells. Nature of the series: Cytotoxicity assay (resazurin). The class given is cell-based, human. How it is done:
as §2
(The colour change of resazurin is a common sign of viable cells or microbes.)

Series [4] is described as follows: Cytotoxicity assay (resazurin). To be noted: mouse, L-929 fibroblasts; 32 μg/mL, 24 h; percentage of dead cells. The series is classed as cell-based, murine. As for the experimental part:
as §2

The subject of series [5] is L-929 cells. Nature of the series: Cytotoxicity assay (resazurin). The series is classed as cell-based, murine. How it is done:
as §2

Series [6] deals with Escherichia coli ATCC 25922. Set-up: method as in PMID 31334221. To be noted: tested alone; cited from earlier work.
The test system of series [7] is Pseudomonas aeruginosa PAO1. Set-up: method as in PMID 31334221. To be noted: tested alone; cited from earlier work.
For series [8], the system named is E. coli 220560529. Nature of the series: Susceptibility test in TMP-resistant strain. The class given is cell-based. As to conditions: data not shown. How it is done: as §1
For series [9], the system named is S. epidermidis 220560752. Description: Susceptibility test in TMP-resistant strain. The class given is cell-based. To be noted: data not shown. As for the experimental part: as §1
Series [10] addresses T1, E. coli DHFR (Escherichia coli, UniProt P0ABQ4).
T1 construct: gift of E. Shakhnovich and J.V. Rodrigues (Harvard University)
Description: Dihydrofolate reductase assay. The class given is biochemical. To be noted: inhibitor 5 µM, 30 min incubation. As for the experimental part: The DHFR assay is based on the reduction of 7,8-dihydrofolate to 5,6,7,8-tetrahydrofolate catalyzed by DHFR and using NADPH as a cofactor. Purified E. coli DHFR was kindly provided by E. Shakhnovich and J.V. Rodrigues (Harvard University, Cambridge, MA, USA). The DHFR assay kit (CS0340) was purchased from Sigma-Aldrich. The assay was performed in 96-well flat-bottom plates (Corning Costar 3606, NY, USA) with the protocol adjusted to accommodate a final reaction volume of 200 µL. DHFR was diluted to a final concentration of 0.03 µg/mL. The inhibitory effect of compounds 1a and 1b was tested, with TMP serving as the control. All three drugs were used at a concentration of 5 µM, which was higher than the respective MICs (Table 1). To determine the effect of the concentration of the DHFR cofactor NADPH on inhibition, a dilution series of NADPH in assay buffer was carried out to obtain a concentration range between 60 µM and 240 µM. A dilution series of H2F was similarly carried out in assay buffer to obtain a concentration range from 50 µM to 200 µM. In all assays, the enzyme was mixed with the different inhibitors and incubated for 30 min before the enzymatic reaction was initiated by the addition of NADPH and H2F. The reaction was conducted at 37 °C and monitored by the decrease in absorbance at 340 nm (indicative of a decrease in the NADPH concentration). […]

Series [11] in a line: Storage stability checked by HPLC-MS. The class given is physicochemical. To be noted: for stability of stock solutions in DMSO: kept in the cold; for time after synthesis without signs of decomposition: stored at −20 °C under an inert atmosphere, HPLC-MS. As for the experimental part:
Compounds 1a and 1b were prepared as previously reported, from the interaction of TMP with aldehydes and isocyanides in acetonitrile under Yb(OTf)3 catalysis. The compounds were purified by chromatography and stored at −20 °C under an inert atmosphere. Stock solutions in DMSO were stable when kept in the cold. The integrity of these compounds and solutions thereof was confirmed by HPLC-MS (column: ZORBAX Extend-C18 3.5 μm 2.1 × 50 mm, Agilent; mobile phase A: H2O + 0.05% HCOOH; mobile phase B: ACN + 0.05% HCOOH; 10 min; 35 °C). There were no signs of decomposition at least 1 year after their chemical synthesis.

For series [12], the system named is P. aeruginosa PAO1. Nature of the series: MIC in presence or absence of efflux pump inhibitor PAßN. The class given is cell-based. To be noted: colistin alone. As for the experimental part:
The efflux pump inhibitor phenyl-arginyl-β-naphthylamide (PaβN) was purchased from Sigma-Aldrich Chemicals (Madrid, Spain). The MIC of the TMP analogues in combination with SMX in the presence of 20 µg PaβN/mL was determined in P. aeruginosa PAO1 using the microdilution method.

The subject of series [13] is E. coli ATCC 25922. Nature of the series: Real-time growth curves with sublethal concentrations. As to conditions: 0.11 µM colistin alone. The series is classed as cell-based. How it is done:
(§3) Additionally, the effect of TMP-SMX and the GBBR analogues in combination with sublethal concentrations of colistin was assessed in growth curves of E. coli ATCC 25922, P. aeruginosa PAO1, and S. marcescens NIMA. Exponential-phase cultures were adjusted to 5 × 10^6 CFU/mL in a final volume of 10 mL of TSB and the antimicrobials were added at sublethal concentrations. Growth was monitored using RTS-1C real-time cell growth loggers (Biosan SIA, Riga, Latvia) in cells incubated for 24 h at 37 °C with shaking at 2000 rpm. Growth was measured every 10 min as the optical density (OD 850 nm).

The subject of series [14] is P. aeruginosa PAO1. The series is described as above. The class given is cell-based. As to conditions: 0.87 µM colistin alone. As for the experimental part:
as §3

Series [15] deals with bacterial growth. Set-up: method as in PMID 23722434. As to conditions: concentrations up to 40 µg/mL; cited from earlier work.
Series [16] has as its system S. marcescens NIMA. Nature of the series: Real-time growth curves with sublethal concentrations. To be noted: with SMX (1:20), in the presence of colistin. The series is classed as cell-based. As for the experimental part:
as §3

[17] abbreviates: Homo sapiens, HepG2, 24 h, read-out: IC50 (drug concentration needed to inhibit cell growth by 50%).
The mark [18] stands for this setting: Mus musculus, L929, 24 h, read-out: IC50 (drug concentration needed to inhibit cell growth by 50%).

Converted amounts (≈) assume the structure as drawn. Where two headings read alike, the source gives them in different places. Peptide text beside a SMILES is read from it. * marks the point of attachment. βNA = c1ccc2cc(N*)ccc2c1 A value given as a limit tells only on which side of the number the result lay.

The values below come from paper PMC8231229, “New Trimethoprim-Like Molecules: Bacteriological Evaluation and Insights into Their Action” (Antibiotics, 2021).

What is called MIC is the lowest concentration that inhibits growth of the organism. A word on the inhibition: it is the change of the read-out against control, counted positive when it falls. High values mean a response far below the control, low ones a response near the control.

T1 sequence (P0ABQ4 whole entry): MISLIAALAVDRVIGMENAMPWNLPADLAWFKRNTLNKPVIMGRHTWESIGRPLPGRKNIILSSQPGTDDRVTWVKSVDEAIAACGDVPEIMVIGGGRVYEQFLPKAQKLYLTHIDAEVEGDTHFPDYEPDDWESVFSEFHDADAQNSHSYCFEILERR

Take `COc1cc(Cc2cnc(N)nc2N)cc(OC)c1OC` [TMP, Trimethoprim]: the MIC in [1] (Serratia marcescens) is 13.8 µM (≈ 4 µg/mL); in series [6] it was 0.43 µM (≈ 0.125 µg/mL); in [7] it was more than 110.22 µM. In addition, the cytotoxicity at 24 h, 32 μg/mL turned out to be 0.35% in series [2] and 0.8% in [4]. In addition, the IC50 in series [3] (Homo sapiens, HepG2, 24 h; read-out: IC50 (drug concentration needed to inhibit cell growth by 50%)) was more than 32 µg/mL; in series [5] (Mus musculus, L929, 24 h; read-out: IC50 (drug concentration needed to inhibit cell growth by 50%)) it was more than 32 µg/mL.
As to `COc1cc(Cc2cn3c(NC(C)(C)C)c(C)nc3nc2N)cc(OC)c1OC` [Compound 1a], the minimal inhibitory concentration (MIC) in [1] (Serratia marcescens) is 80.1 µM (≈ 32 µg/mL); in series [6], 1.25 µM (≈ 0.499 µg/mL); in series [7] it was more than 80.10 µM. For the same compound, the “effect in TMP-resistant strain” value in series [8] and in series [9] was “no significant effect” throughout. For the same compound, in series [10], the inhibition at 5 µM was more than 80%. For the same compound, the IC50 in [3] (setting [17]) and in [5] (setting [18]) was more than 32 µg/mL each time. The cytotoxicity at 24 h, 32 μg/mL in series [4] is 0%. The “stability of stock solutions in DMSO” value in series [11] is “stable”. Moreover, in series [11], the “time after synthesis without signs of decomposition” value is listed as “at least 1 year”.
With colistin, the MIC in [1] is on record as more than 886.23 µM; in [6], 0.43 µM; in series [7], 1.73 µM. The “MIC With PAßN” value in series [12] (PAßN 20 µg/mL) was found to be 1.73 µM. In addition, the “MIC Without PAßN” value in [12] came out at 1.73 µM. Also, the delay in growth in series [13] is 10 h; in series [14], 2 h.
Turning to `NC(N)=NCCC[C@H](NC(=O)[C@@H](N)Cc1ccccc1)C(=O)Nc1ccc2ccccc2c1` [PAßN, phenylalanine arginyl ß-naphthylamide] (H-Phe-Arg-βNA), the “effect on bacterial growth” value in [15] was “no detectable effect on bacterial growth”.
For the compound `COc1cc(Cc2cn3c(NC4CCCCC4)c(-c4cccnc4)nc3nc2N)cc(OC)c1OC` [Compound 1b], the figures for the minimal inhibitory concentration (MIC) in series [1] (Serratia marcescens), in series [6] and in series [7] were 16.4 µM (≈ 8 µg/mL), 1.02 µM (≈ 0.498 µg/mL) and more than 65.50 µM, respectively. Besides, the “effect in TMP-resistant strain” value in [8] and in series [9] was “no significant effect” in each case. Besides, in [16], the “effect on growth curve” value is recorded as “complete abolition of growth”. In addition, the inhibition at 5 µM in [10] was more than 80%. Moreover, the cytotoxicity at 24 h, 32 μg/mL in [2] amounted to 0.11%; in series [4], 0%. In addition, the IC50 in series [3] (setting [17]) and in series [5] (setting [18]) was more than 32 µg/mL each time. The “stability of stock solutions in DMSO” value in [11] is on record as “stable”. In addition, in [11], the “time after synthesis without signs of decomposition” value is reported as “at least 1 year”.
